Columns and labels:
[1] = target: T1, human caspase 6 lacking the pro-domain (Homo sapiens, UniProt P55212); assay: Lamin A cleavage in HEK 293 cells overexpressing caspase-6 (Mesoscale ELISA); assay type: cell-based; design: The transfected DNA encodes amino acids 24-293 of the human caspase 6 enzyme with a C-terminal DDK tag; DDK-tag (C); expressed in transfected cells; host or cells: HEK 293; conditions: 24 hr incubation; cleaved lamin A quantified; read-out: HEK intracellular IC50
T1 sequence (P55212 with tags, fused parts or gaps): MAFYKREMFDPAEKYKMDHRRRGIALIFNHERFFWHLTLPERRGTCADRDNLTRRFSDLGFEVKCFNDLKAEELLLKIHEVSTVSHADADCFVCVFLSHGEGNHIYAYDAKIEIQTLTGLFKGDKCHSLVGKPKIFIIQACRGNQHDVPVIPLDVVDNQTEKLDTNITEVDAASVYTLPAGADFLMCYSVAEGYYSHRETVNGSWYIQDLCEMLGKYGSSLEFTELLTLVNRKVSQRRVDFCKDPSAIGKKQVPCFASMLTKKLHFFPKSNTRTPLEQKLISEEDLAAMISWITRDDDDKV
Description: HEK 293 cells were grown in DMEM supplemented with 10% fetal bovine serum, 1%/penicillin/streptomycin and 0.5% glutamine. Transfections were performed using the Fugene reagent (Roche) according to manufacturer's instructions. The transfected DNA encodes amino acids 24-293 of the human caspase 6 enzyme with a C-terminal DDK tag under the control of a CMV promoter (vector pCMVSport6) (SEQ ID NO: 2). The transfected HEK 293 were used to measure the intracellular activity of caspase-6 as evidenced by cleavage of the lamin substrate (described below).
The quantitative assessment of intracellular lamin cleavage in caspase-6 transfected HEK 293 cells was done as described previously (Ehrnhoefer et al. PLoS One, 2011. 6(11):e27680) Briefly, HEK 293 cell lysates were adjusted to 1 μg protein/μl in lysis buffer, diluted to 0.2 μg/μl in PBS and 5 μl were added to a Multi-Array high-bind 96 well plate (Mesoscale discovery). After incubation at room temperature for 1 h, the wells were blocked by adding 150 μl 5% BSA in PBS, followed by further incubation at room temperature for 1 h. Wells were then washed 3× with 150 μl PBS+0.05% Tween, and 25 μl antibody mix was added (Cell signaling #2036 at 1:100 dilution, Mesoscale discovery goat-anti-rabbit sulfo-tag at 1:500 dilution in PBS with 1% BSA). After lh incubation at room temperature, the wells were washed 3× with 150 μl PBS+0.05% Tween, and 150 μl/well 2× reading reagent (Mesoscale discovery) was added. The plate was read on a Sector imager 6000 (Mesoscale discovery).
The PG3 analog compounds were also tested for their ability to inhibit caspase-6 within cultured cells. HEK 293 cells were transfected with human caspase 6 lacking the pro-domain and were incubated with increasing concentrations of the PG3 analogs. After a 24 hr incubation, the excess compound was washed away, the cells were lysed and the amount of cleaved lamin A protein was quantified by the Mesoscale ELISA method.

[2] = target: T1, human caspase 6 lacking the pro-domain; assay: Intracellular Htt cleavage by Western blot in co-transfected COS-7 cells; assay type: cell-based; design: DDK-tag (C); expressed in transfected cells; host or cells: COS-7
Description: COS-7 cells were co-transfected with the 4c htt fragment and the human caspase-6 lacking the pro-domain which leads to fast autoactivation of the caspase-6 enzyme and the generation of the 586 aa Htt cleavage fragment. The co-transfected cells were exposed to either 10 uM of the PG3d compound, 3 uM of the Q-VD-Oph pan-caspase inhibitor or were left untreated. Non-transfected cells were included as a negative control and the purified 586 aa Htt fragment was included as a positive control. Cell lysates were subjected to Western blotting and the 586AA fragment generated intracellularly was detected with Htt antibody 2166 (Millipore). Caspase-6 expression and activation was assessed by Western blotting using antibody HD91 (Ehrnhoefer et al, HMG, 2014. 23(3):717-29).
COS-7 cells were co-transfected with the 4c htt fragment and the human caspase-6 lacking the pro-domain which leads to fast autoactivation of the caspase-6 enzyme and the generation of the 586 aa Htt cleavage fragment. […] Non-transfected cells were included as a negative control and the purified 586 aa Htt fragment was included as a positive control. […] The cell lysates were also assayed for the levels of active caspase 6 enzyme as shown in the lower panel of FIG. 5B.

caspase-6 = target: T2, caspase-6 (Mus musculus, UniProt O08738); assay: Lamin A cleavage in primary cortical neuronal culture treated with camptothecin; assay type: cell-based, FVB/N mice; conditions: 10 uM compound; 10 uM camptothecin for 30 h
T2 construct: endogenous in cells; host or cells: primary cortical neurons from FVB/N mice
T2 sequence (O08738 6-276): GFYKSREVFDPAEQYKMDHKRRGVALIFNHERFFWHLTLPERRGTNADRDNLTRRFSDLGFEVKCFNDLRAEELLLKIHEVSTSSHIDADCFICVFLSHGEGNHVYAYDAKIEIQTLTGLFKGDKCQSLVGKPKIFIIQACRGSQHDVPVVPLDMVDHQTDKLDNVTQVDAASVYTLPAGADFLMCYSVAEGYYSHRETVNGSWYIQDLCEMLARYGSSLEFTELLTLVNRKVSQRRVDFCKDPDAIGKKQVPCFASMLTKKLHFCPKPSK
Description: Cortical neuronal cultures from FVB mice were prepared as described (Metzler et al, J Neurosci (2007) 27(9):2298). At day 10 in vitro, cells were treated with camptothecin, and after 30 h harvested by scraping in PBS supplemented with 1× complete protease inhibitor (Roche) and 4 mM Pefabloc. Cells were lysed by suspension in lysis buffer (50 mM Tris pH8, 150 mM NaCl, 1% Igepal, supplemented with 1× complete protease inhibitor (Roche) and 4 mM Pefabloc). Lysates were incubated on ice for 10 min, vortexed and sonicated for 4 sec before centrifugation at 21 000×g for 10 min at 4° C. Supernatants were saved, protein concentration determined with the Biorad DC assay and quantitative assessment of cleaved lamin A in neuronal lysates was performed with the Mesoscale ELISA method as described in Ehrnhoefer et al. PLoS One, 2011. 6(11):e27680.
Next, it was determined whether the PG-3d compound could inhibit caspase-6 within neuronal cells in an in vitro neuronal system which may be more relevant for the testing of therapeutics for neurodegeneration. Briefly, primary cortical neuronal cultures from FVB/N mice were treated with 10 uM camptothecin for 30 h starting at DIV10 in the presence or absence of 10 uM of the PG-3d compound.

In the case of `O=c1oc(C#Cc2ccccc2)nc(O)c1Cc1ccccc1` [PG-3d, 5-Benzyl-4-hydroxy-2-(phenylethynyl)-6H-1,3-oxazin-6-one], the IC50 [1] is reported as 2.6 µM, the melting point is reported as 179 to 181 °C and the “level of active caspase 6 enzyme” value ([2]; 10 uM compound) is reported as “decreased amount of active enzyme”. For the same molecule, the “generation of the 586 aa Htt cleavage fragment” value ([2]; 10 uM compound vs untreated cells) was “significant reduction” and the “caspase-6 activity (cleaved lamin A)” value (caspase-6) was “significantly reduces”.

Source: patent US20190192524A1, “Modulators of Caspase-6” (The University of British Columbia, priority 2014, published 2019)
